Tests used:
Test in all cases: relative viability (nuclei count vs DMSO), 5 days (fraction); higher = more cells survive
[1] = compound: Cn1cnc2c(F)c(Nc3ccc(Br)cc3Cl)c(C(=O)NOCCO)cc21 [Selumetinib] + CS(=O)(=O)CCNCc1ccc(-c2ccc3ncnc(Nc4ccc(OCc5cccc(F)c5)c(Cl)c4)c3c2)o1 [Lapatinib] (partner 2 µM)
In short: (§1)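 Lung cancer cell lines in 1536-well plates got either a single drug or a fixed anchor-drug dose together with five library-drug doses (not always all listed) in √10 steps, by pin tool, on the day after seeding. Nuclei were counted after 5 days, and relative viability is the treated-to-vehicle ratio of nuclei counts. Values are medians of duplicate plates.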

[2] = compound: CC1(C)CCC(CN2CCN(c3ccc(C(=O)NS(=O)(=O)c4ccc(NCC5CCOCC5)c([N+](=O)[O-])c4)c(Oc4cnc5[nH]ccc5c4)c3)CC2)=C(c2ccc(Cl)cc2)C1 [Venetoclax] + COc1cc2c(Oc3ccc(NC(=O)C4(C(=O)Nc5ccc(F)cc5)CC4)cc3F)ccnc2cc1OCCCN1CCOCC1 [Foretinib] (partner 0.25 µM)
In short: as §1

[3] = compound: Cn1cnc2c(F)c(Nc3ccc(Br)cc3Cl)c(C(=O)NOCCO)cc21 [Selumetinib] + Nc1nc2[nH]cc(CCc3ccc(C(=O)N[C@@H](CCC(=O)O)C(=O)O)cc3)c2c(=O)[nH]1 [Pemetrexed] (partner 0.2 µM)
In short: as §1

[4] = compound: Cn1cnc2c(F)c(Nc3ccc(Br)cc3Cl)c(C(=O)NOCCO)cc21 [Selumetinib] + COc1cccc2cc(-c3nc([C@H]4CC[C@H](C(=O)O)CC4)n4ncnc(N)c34)[nH]c12 [OSI-027] (partner 0.5 µM)
In short: as §1

Cell Line	relative viability ([1]; first compound 0.02 µM)	relative viability ([1]; first compound 0.06325 µM)	relative viability ([1]; first compound 0.2 µM)	relative viability ([1]; first compound 0.6325 µM)	relative viability ([2]; first compound 0.01 µM)	relative viability ([2]; first compound 0.03162 µM)	relative viability ([2]; first compound 0.1 µM)	relative viability ([2]; first compound 0.3162 µM)	relative viability ([2]; first compound 1 µM)	relative viability ([3]; first compound 0.02 µM)	relative viability ([3]; first compound 0.06325 µM)	relative viability ([3]; first compound 0.2 µM)	relative viability ([3]; first compound 0.6325 µM)	relative viability ([4]; first compound 0.02 µM)	relative viability ([4]; first compound 0.06325 µM)	relative viability ([4]; first compound 0.2 µM)	relative viability ([4]; first compound 0.6325 µM)
201T	1.01	0.963	0.958	0.949	1.2	1.04	0.976	0.98	1.06	0.358	0.328	0.323	0.308	0.658	0.674	0.628	0.691
A549	0.84	0.731	0.749	0.5	0.896	0.871	0.989	0.912	0.883	–	–	–	–	–	–	–	–
A-427	0.98	0.914	1.09	1.1	0.957	1.2	0.944	1.24	1.11	1.11	1.05	1.05	1.04	0.482	0.327	0.321	0.288
ABC-1	1.22	1.27	0.967	1.03	0.867	1.22	0.976	0.961	0.922	–	–	–	–	0.373	0.403	0.367	0.345
BEN	0.69	0.829	0.637	0.648	0.728	0.743	0.561	0.681	0.518	0.806	0.765	0.697	0.888	0.276	0.315	0.274	0.295
CAL-12T	0.542	0.425	0.523	0.521	1.17	1.14	1.13	1.18	1.05	1.28	1.25	1.1	0.969	0.636	0.492	0.516	0.395
COR-L23	1.18	1.1	0.98	1	0.884	1.03	1.04	0.866	0.883	0.202	0.217	0.21	0.194	0.798	0.782	0.753	0.565
COR-L 105	0.309	0.3	0.337	0.366	0.752	0.78	1.15	1	0.991	1.11	1.02	0.841	0.582	0.612	0.46	0.467	0.343
Calu-6	1.05	0.853	0.693	0.439	0.907	0.861	0.992	0.846	0.878	–	–	–	–	–	–	–	–
ChaGo-K-1	–	–	–	–	1.02	0.944	0.889	0.916	0.949	0.258	0.258	0.275	0.256	0.562	0.504	0.524	0.528
EBC-1	0.203	0.201	0.239	0.199	0.115	0.0897	0.09	0.0924	0.0981	–	–	–	–	–	–	–	–
EKVX	0.171	0.263	0.241	0.168	0.657	1.24	0.332	0.795	0.788	0.342	0.361	0.323	0.307	0.654	0.645	0.606	0.469
EMC-BAC-2	0.955	0.898	0.905	0.862	0.994	1.03	1.12	0.986	0.978	0.508	0.539	0.522	0.574	0.42	0.447	0.511	0.483
EPLC-272H	0.801	0.722	0.558	0.643	0.678	0.849	0.597	0.725	0.74	0.317	0.375	0.326	0.34	0.284	0.259	0.236	0.183
H3255	0.238	0.267	0.218	0.243	0.835	1	0.865	0.893	0.788	0.564	0.571	0.552	0.549	0.511	0.661	0.582	0.593
HARA	0.657	0.506	0.606	0.486	0.916	0.947	0.925	0.891	0.886	0.24	0.179	0.224	0.217	0.481	0.443	0.327	0.263
HCC-15	0.786	0.575	0.463	0.398	0.998	1.02	0.96	0.931	0.825	0.194	0.221	0.203	0.214	0.522	0.344	0.256	0.19
HCC-44	0.977	1	0.891	0.966	–	–	–	–	–	0.635	0.748	0.684	0.75	0.482	0.388	0.35	0.368
HCC-78	0.695	0.64	0.657	0.675	0.518	0.54	0.525	0.484	0.576	0.836	0.892	0.918	0.903	0.346	0.397	0.396	0.385

Cell Line	relative viability ([1]; first compound 0.02 µM)	relative viability ([1]; first compound 0.06325 µM)	relative viability ([1]; first compound 0.2 µM)	relative viability ([1]; first compound 0.6325 µM)	relative viability ([2]; first compound 0.01 µM)	relative viability ([2]; first compound 0.03162 µM)	relative viability ([2]; first compound 0.1 µM)	relative viability ([2]; first compound 0.3162 µM)	relative viability ([2]; first compound 1 µM)	relative viability ([3]; first compound 0.02 µM)	relative viability ([3]; first compound 0.06325 µM)	relative viability ([3]; first compound 0.2 µM)	relative viability ([3]; first compound 0.6325 µM)	relative viability ([4]; first compound 0.02 µM)	relative viability ([4]; first compound 0.06325 µM)	relative viability ([4]; first compound 0.2 µM)	relative viability ([4]; first compound 0.6325 µM)
HCC-366	1.06	0.914	0.872	0.612	0.86	1.04	0.872	0.963	0.974	0.224	0.191	0.234	0.206	0.911	0.756	0.72	0.422
HCC-827	0.175	0.182	0.187	0.18	0.966	1.03	0.971	0.98	0.916	0.25	0.277	0.269	0.288	0.782	0.751	0.62	0.708
HOP-62	1.08	0.86	0.732	0.636	1.07	1.16	0.997	1.08	1.03	0.31	0.382	0.348	0.321	0.887	0.751	0.818	0.5
IA-LM	0.395	0.182	0.111	0.108	1.02	1.17	1.13	1.14	0.977	–	–	–	–	–	–	–	–
LC-2-ad	0.91	0.879	0.736	0.842	1.04	0.95	0.938	0.947	0.904	0.263	0.269	0.273	0.277	0.828	0.662	0.631	0.726
LCLC-97TM1	1.05	0.985	0.86	0.481	0.913	1.03	0.918	0.981	0.782	0.186	0.237	0.219	0.258	0.487	0.386	0.325	0.249
LCLC-103H	–	–	–	–	0.758	0.782	0.698	0.767	0.801	0.437	0.479	0.5	0.519	0.474	0.425	0.453	0.44
LK-2	1.16	0.852	0.848	0.924	1.15	1.34	1.27	1.18	0.891	0.282	0.349	0.352	0.375	0.2	0.229	0.203	0.189
LOU-NH91	0.759	0.707	0.758	0.766	0.895	0.969	0.97	0.94	0.911	0.438	0.397	0.458	0.385	0.701	0.68	0.646	0.615
NCI-H441	–	–	–	–	0.903	0.962	0.966	0.97	0.686	0.283	0.248	0.275	0.308	0.593	0.494	0.598	0.517
NCI-H522	–	–	–	–	–	–	–	–	–	0.962	0.942	1	0.783	0.693	0.64	0.685	0.682
NCI-H727	0.562	0.443	0.349	0.325	1.16	0.719	0.834	1.08	0.884	–	–	–	–	0.603	0.395	0.332	0.427
NCI-H1299	1.06	0.959	1.02	0.812	1.07	1.11	1.1	1.07	1.03	–	–	–	–	–	–	–	–
NCI-H1623	–	–	–	–	0.897	0.906	0.893	0.836	0.858	–	–	–	–	0.39	0.383	0.343	0.359
NCI-H1648	–	–	–	–	–	–	–	–	–	–	0.838	0.956	0.904	0.29	0.266	0.293	0.289
NCI-H1703	1.19	1.17	1.17	0.994	0.345	–	0.397	0.328	0.367	–	–	–	–	–	–	–	–
NCI-H1792	0.881	0.79	0.683	0.629	–	–	–	–	–	0.637	0.648	0.634	0.557	0.761	0.727	0.67	0.611
NCI-H2342	–	–	–	–	1	1.23	1.03	1.01	1.13	0.778	0.7	0.758	0.839	0.611	0.6	0.46	0.59
SW 900	–	–	–	–	0.745	1.05	0.823	0.916	1.16	0.474	0.449	0.454	0.441	0.594	0.554	0.477	0.588
